Data on one molecule can be found in ChEMBL document CHEMBL5584348, “Exploring Degradation of Intrinsically Disordered Protein Yes-Associated Protein Induced by Proteolysis TArgeting Chimeras” (J Med Chem, 2024).

Activity calls are given as the source filed them. No cut-off for these calls is given here.

Data set [1] relates to NCI-H226. The experiment in a line: Antiproliferative activity against human NCI-H226 cells assessed as cell killing at 10 uM incubated for 3 days by CCK-8 assay. The data set is classed as functional, cell-based. As to conditions: time 3.0 day.
The target in data set [2] is T1, von Hippel-Lindau disease tumor suppressor/Transcriptional coactivator YAP1 (Homo sapiens, UniProt P40337+P46937). Put plainly: PROTAC activity at YAP/VHL in human NCI-H226 cells assessed as induction of YAP degradation incubated for 48 hrs by Western blot analysis. The format is cell-based.
Target sequence in this assay (P40337 whole entry): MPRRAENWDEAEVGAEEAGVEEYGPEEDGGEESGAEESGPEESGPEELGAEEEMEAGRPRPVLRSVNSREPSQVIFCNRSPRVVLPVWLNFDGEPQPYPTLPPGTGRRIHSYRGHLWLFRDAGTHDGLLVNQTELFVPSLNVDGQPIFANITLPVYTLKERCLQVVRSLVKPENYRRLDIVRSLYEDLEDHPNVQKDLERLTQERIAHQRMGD
Target sequence in this assay (P46937 whole entry): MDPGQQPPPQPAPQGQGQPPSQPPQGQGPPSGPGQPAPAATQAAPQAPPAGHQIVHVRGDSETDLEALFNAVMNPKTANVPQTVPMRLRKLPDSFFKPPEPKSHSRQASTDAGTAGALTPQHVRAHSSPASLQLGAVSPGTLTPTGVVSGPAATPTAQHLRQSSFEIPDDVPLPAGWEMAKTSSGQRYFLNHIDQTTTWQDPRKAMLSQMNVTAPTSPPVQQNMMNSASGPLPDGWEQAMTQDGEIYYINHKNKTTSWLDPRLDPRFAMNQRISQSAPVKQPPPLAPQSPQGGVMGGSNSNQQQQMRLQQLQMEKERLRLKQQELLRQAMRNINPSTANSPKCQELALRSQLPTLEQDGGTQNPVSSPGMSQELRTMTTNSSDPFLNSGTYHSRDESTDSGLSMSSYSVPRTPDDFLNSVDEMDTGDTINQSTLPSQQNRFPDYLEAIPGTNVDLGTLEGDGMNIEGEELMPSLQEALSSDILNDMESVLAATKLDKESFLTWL
Data set [3] has as its system Huh-7. The experiment in a line: Antiproliferative activity against human Huh-7 cells overexpressing YAP assessed as suppression of cell proliferation incubated for 4 days by CCK-8 assay. The format is functional, cell-based. As to conditions: time 4.0 day.
In data set [4] the target is T1, von Hippel-Lindau disease tumor suppressor/Transcriptional coactivator YAP1. The experiment in a line: PROTAC activity at YAP/VHL in human Huh-7 cells assessed as reduction on CTGF expression incubated for 48 hrs by Western blot analysis. The data set is classed as cell-based. Particulars: dose 2.5-20 µM.
Target sequence in this assay (P40337 whole entry, looked up): as the sequence (P40337 whole entry) above
Target sequence in this assay (P46937 whole entry, looked up): as the sequence (P46937 whole entry) above
For data set [5] the target is unchanged. Put plainly: PROTAC activity at YAP/VHL in human Huh-7 cells assessed as induction of YAP degradation at 20 uM incubated at 24 hrs by Western blot analysis. The data set is classed as cell-based.
Target sequence in this assay (P40337 whole entry, looked up): as the sequence (P40337 whole entry) above
Target sequence in this assay (P46937 whole entry, looked up): as the sequence (P46937 whole entry) above
Data set [6] shares this target. The experiment in a line: PROTAC activity at YAP/VHL in human Huh-7 cells assessed as induction of YAP degradation at 20 uM pretreated with VHL ligand 2 for 2 hrs followed by compound addition and measured after 24 hrs by Western blot analysis. The format is cell-based.
Target sequence in this assay (P40337 whole entry, looked up): as the sequence (P40337 whole entry) above
Target sequence in this assay (P46937 whole entry, looked up): as the sequence (P46937 whole entry) above
The target is the same in data set [7]. The experiment in a line: PROTAC activity at YAP/VHL in human Huh-7 cells assessed as induction of YAP degradation at 20 uM measured for 24 hrs in presence of MG-132 by Western blot analysis. The data set is classed as cell-based.
Target sequence in this assay (P40337 whole entry, looked up): as the sequence (P40337 whole entry) above
Target sequence in this assay (P46937 whole entry, looked up): as the sequence (P46937 whole entry) above
Data set [8] has the same target. The experiment in a line: PROTAC activity at YAP/VHL in human Huh-7 cells assessed as induction of YAP degradation at 10 uM measured for 24 hrs by Western blot analysis relative to control. The data set is classed as cell-based.
Target sequence in this assay (P40337 whole entry, looked up): as the sequence (P40337 whole entry) above
Target sequence in this assay (P46937 whole entry, looked up): as the sequence (P46937 whole entry) above
Data set [9] shares this target. Put plainly: PROTAC activity at YAP/VHL in human Huh-7 cells assessed as suppression of CTGF expression at 10 to 20 uM measured for 24 hrs by Western blot analysis relative to control. The format is cell-based. As to conditions: dose 10-20 µM.
Target sequence in this assay (P40337 whole entry, looked up): as the sequence (P40337 whole entry) above
Target sequence in this assay (P46937 whole entry, looked up): as the sequence (P46937 whole entry) above
The subject of data set [10] is Huh-7. The experiment in a line: Antitumor activity against human Huh-7 cells xenografted in immunodeficient male NSG mouse assessed as inhibition of tumor growth at 35 mg/kg, ip administered for 3 days. Particulars: time 3.0 day. The format is functional, organism-based.
Data set [11] concerns Huh-7. The experiment in a line: Antitumor activity against human Huh-7 cells xenografted in immunodeficient male NSG mouse assessed as reduction in CTGF level at 35 mg/kg, ip administered every 3 days for 24 days by Western blot analysis. The data set is classed as functional, organism-based. As to conditions: time 24.0 day.
For data set [12], the system named is Huh-7. The experiment in a line: Antitumor activity against human Huh-7 cells xenografted in immunodeficient male NSG mouse assessed as reduction in CYR61 level at 35 mg/kg, ip administered every 3 days for 24 days by Western blot analysis. The data set is classed as functional, organism-based. As to conditions: time 24.0 day.
Data set [13] in a line: Toxicity in immunodeficient male NSG mouse xenografted with human Huh-7 cells assessed as change in ALT level in liver at 35 mg/kg, ip administered every 3 days for 24 days. The format is organism-based. Particulars: in vivo, 576 h, time 24 day.
The nature of data set [14]: Toxicity in immunodeficient male NSG mouse xenografted with human Huh-7 cells assessed as morphological abnormalities in liver at 35 mg/kg, ip administered every 3 days for 24 days by H and E staining based analysis. The data set is classed as organism-based. Particulars: in vivo, 576 h, time 24 day.
Data set [15] in a line: Cmax in Sprague-Dawley rat at 35 mg/kg, ip measured upto 24 hrs by LC-MS/MS analysis. The data set is classed as ADME, organism-based. Particulars: in vivo.
Data set [16] is described as follows: AUClast in Sprague-Dawley rat at 35 mg/kg, ip measured upto 24 hrs by LC-MS/MS analysis. The data set is classed as ADME, organism-based. Particulars: in vivo.
Data set [17] is described as follows: AUC (0 to infinity) in Sprague-Dawley rat at 35 mg/kg, ip measured upto 24 hrs by LC-MS/MS analysis. The format is ADME, organism-based. Particulars: in vivo.

As to `COc1cc(-c2cc(-c3ccccc3)nc3c2CC(=O)Nc2ccccc2-3)ccc1OCCOCCOCCC(=O)N[C@H](C(=O)N1C[C@H](O)C[C@H]1C(=O)N[C@@H](C)c1ccc(-c2scnc2C)cc1)C(C)(C)C`, the outcome in data set [1] was inactive. Also, in [2], the DC50 turned out to be 8.2 µM. Also, the result in [3], in data set [6], in [7], in [9], in data set [10] and in data set [11] was Active. Moreover, in data set [12], the result was Active. The Activity entry in [4] is “Dose-Dependent Effect”; in [5] it was 65%; in data set [8], 50%; in data set [13] it was “Non-Toxic”; in [14], “Non-Toxic”. The molecule further displayed a Cmax in data set [15] of 193 ng/mL. This molecule registered an AUC(0-t) at 24 h in data set [16] of 1940 ng·h/mL. Also, the AUC(0-inf) in [17] worked out at 2690 ng·h/mL.
